Seven compounds from patent USRE44733E1, “6-mercapto-cyclodextrin derivatives:reversal agents for drug-induced neuromuscular block” (Merck Sharp & Dohme B.V., priority 1999, dated 2014) can be followed below.

SMILES strings stand for the structures.

The assay relates to neuromuscular block, induced by the muscle relaxant rocuronium bromide (Roc). Description: Reversal of neuromuscular blockade in anaesthetized guinea pigs in vivo. Particulars: for concentration at maximum reversal (at conc.) / % max reversal: anaesthetized guinea pigs, rocuronium bromide steady-state block; for concentration at maximum reversal (at conc.): dose of reversal agent at which % max reversal was seen; for % max reversal: maximum reversal; for ED50: dose producing 50% reversal of steady-state neuromuscular block: anaesthetized male Dunkin-Hartley guinea pigs, steady-state block of 85-90% by continuous rocuronium bromide infusion, reversal agent given by jugular vein catheter, M. gastrocnemius contractions. The protocol:
Reversal of Neuromuscular Blockade in Anaesthetized Guinea Pigs in vivo
Male Dunkin-Hartley guinea pigs (bodyweight: 600-900 g) were anaesthetized by i.p. administration of 10 mg/kg pentobarbitone and 1000 mg/kg urethane. After tracheotomy, the animals were artificially ventilated using a Harvard small animal ventilator. A catheter was placed into the carotid artery for continuous monitoring of arterial blood pressure and the taking of blood samples for blood gas analysis. Heart rate was derived from the blood pressure signal. The sciatic nerve was stimulated (rectangular pulses of 0.5 ms duration at 10 s (0.1 Hz) intervals at a supramaximal voltage, using a Grass S88 Stimulator) and the force of M. gastrocnemius contractions was measured using a Grass FT03 force-displacement transducer. Contractions, blood pressure and heart rate were recorded on a multichannel Grass 7D recorder. Catheters were placed in both jugular veins. One catheter was used for the continuous infusion of a neuromuscular blocking agent. The infusion rate of the neuromuscular blocking agent was increased until a steady-state block of 85-90% was obtained. The other catheter was used for administration of increasing doses of the reversal agent. During continuous infusion of the neuromuscular blocking agent, single doses of increasing concentration of reversal agent were given. At the end of the experiment, the measured force of muscle contractions was plotted against the concentration of reversal agent, and using regression analysis techniques, the 50% reversal concentration was calculated. Results for the reversal of the neuromuscular block, induced by the muscle relaxant rocuronium bromide (Roc), by the 6-mercapto-cyclodextrin derivatives of Examples 1-19 are presented in Table I. For comparison, the reversal activity of the parent compounds β-cyclodextrin and γ-cyclodextrin are included as well.

Turning to `CC(CSC[C@H]1O[C@@H]2O[C@H]3[C@H](O)[C@@H](O)[C@@H](O[C@H]4[C@H](O)[C@@H](O)[C@@H](O[C@H]5[C@H](O)[C@@H](O)[C@@H](O[C@H]6[C@H](O)[C@@H](O)[C@@H](O[C@H]7[C@H](O)[C@@H](O)[C@@H](O[C@H]8[C@H](O)[C@@H](O)[C@@H](O[C@H]9[C@H](O)[C@@H](O)[C@@H](O[C@H]1[C@H](O)[C@H]2O)O[C@@H]9CSCC(C)C(=O)[O-])O[C@@H]8CSCC(C)C(=O)[O-])O[C@@H]7CSCC(C)C(=O)[O-])O[C@@H]6CSCC(C)C(=O)[O-])O[C@@H]5CSCC(C)C(=O)[O-])O[C@@H]4CSCC(C)C(=O)[O-])O[C@@H]3CSCC(C)C(=O)[O-])C(=O)[O-].[Na+].[Na+].[Na+].[Na+].[Na+].[Na+].[Na+].[Na+]` (stereo partly drawn) [example 15, 6-Per-deoxy-6-per(2-carboxypropyl)thio-γ-cyclodextrin, Sodium Salt], the “concentration at maximum reversal (at conc.)” value (from here on “concentration”) is recorded as “(0.48) μmol · kg^−1”, the “% max reversal” value came out at 103% and the “ED50: dose producing 50% reversal of steady-state neuromuscular block” value (“ED50: dose producing 50% reversal” below) turned out to be 0.10 µmol/kg.
The corresponding values for `O=C([O-])CCSC[C@H]1O[C@@H]2O[C@H]3[C@H](O)[C@@H](O)[C@@H](O[C@H]4[C@H](O)[C@@H](O)[C@@H](O[C@H]5[C@H](O)[C@@H](O)[C@@H](O[C@H]6[C@H](O)[C@@H](O)[C@@H](O[C@H]7[C@H](O)[C@@H](O)[C@@H](O[C@H]8[C@H](O)[C@@H](O)[C@@H](O[C@H]9[C@H](O)[C@@H](O)[C@@H](O[C@H]1[C@H](O)[C@H]2O)O[C@@H]9CSCCC(=O)[O-])O[C@@H]8CSCCC(=O)[O-])O[C@@H]7CSCCC(=O)[O-])O[C@@H]6CSCCC(=O)[O-])O[C@@H]5CSCCC(=O)[O-])O[C@@H]4CSCCC(=O)[O-])O[C@@H]3CSCCC(=O)[O-].[Na+].[Na+].[Na+].[Na+].[Na+].[Na+].[Na+].[Na+]` [example 4, 6-Per-deoxy-6-per-(2-carboxyethyl)thio-γ-cyclodextrin, Sodium Salt] are “(0.53) μmol · kg^−1”, 97% and 0.09 µmol/kg.
The corresponding values for `O=C([O-])c1ccc(SC[C@H]2O[C@@H]3O[C@H]4[C@H](O)[C@@H](O)[C@@H](O[C@H]5[C@H](O)[C@@H](O)[C@@H](O[C@H]6[C@H](O)[C@@H](O)[C@@H](O[C@H]7[C@H](O)[C@@H](O)[C@@H](O[C@H]8[C@H](O)[C@@H](O)[C@@H](O[C@H]9[C@H](O)[C@@H](O)[C@@H](O[C@H]%10[C@H](O)[C@@H](O)[C@@H](O[C@H]2[C@H](O)[C@H]3O)O[C@@H]%10CSc2ccc(C(=O)[O-])cc2)O[C@@H]9CSc2ccc(C(=O)[O-])cc2)O[C@@H]8CSc2ccc(C(=O)[O-])cc2)O[C@@H]7CSc2ccc(C(=O)[O-])cc2)O[C@@H]6CSc2ccc(C(=O)[O-])cc2)O[C@@H]5CSc2ccc(C(=O)[O-])cc2)O[C@@H]4CSc2ccc(C(=O)[O-])cc2)cc1.[Na+].[Na+].[Na+].[Na+].[Na+].[Na+].[Na+].[Na+]` [example 8, 6-Per-deoxy-6-per-(4-carboxyphenyl)thio-γ-cyclodextrin, Sodium Salt] are “(0.48) μmol · kg^−1”, 95% and 0.10 µmol/kg.
The corresponding values for `OC[C@H]1O[C@@H]2O[C@H]3[C@H](O)[C@@H](O)[C@@H](O[C@H]4[C@H](O)[C@@H](O)[C@@H](O[C@H]5[C@H](O)[C@@H](O)[C@@H](O[C@H]6[C@H](O)[C@@H](O)[C@@H](O[C@H]7[C@H](O)[C@@H](O)[C@@H](O[C@H]8[C@H](O)[C@@H](O)[C@@H](O[C@H]1[C@H](O)[C@H]2O)O[C@@H]8CO)O[C@@H]7CO)O[C@@H]6CO)O[C@@H]5CO)O[C@@H]4CO)O[C@@H]3CO` [β-cyclodextrin, reference compound] are “(113) μmol · kg^−1”, 93% and 20 µmol/kg.
For `NC(=O)CCCSCC1OC2OC3C(CSCCCC(N)=O)OC(OC4C(CSCCCC(N)=O)OC(OC5C(CSCCCC(N)=O)OC(OC6C(CSCCCC(N)=O)OC(OC7C(CSCCCC(N)=O)OC(OC8C(CSCCCC(N)=O)OC(OC9C(CSCCCC(N)=O)OC(OC1C(O)C2O)C(O)C9O)C(O)C8O)C(O)C7O)C(O)C6O)C(O)C5O)C(O)C4O)C(O)C3O` (stereo not drawn) [example 10, 6-Per-deoxy-6-per(3-amidopropyl)thio-γ-cyclodextrin], the “concentration” value is recorded as “(33) μmol · kg^−1”, the “% max reversal” value is given as 94% and the “ED50: dose producing 50% reversal” value came out at 0.57 µmol/kg.
Regarding `O=C([O-])CCCCCSC[C@H]1O[C@@H]2O[C@H]3[C@H](O)[C@@H](O)[C@@H](O[C@H]4[C@H](O)[C@@H](O)[C@@H](O[C@H]5[C@H](O)[C@@H](O)[C@@H](O[C@H]6[C@H](O)[C@@H](O)[C@@H](O[C@H]7[C@H](O)[C@@H](O)[C@@H](O[C@H]8[C@H](O)[C@@H](O)[C@@H](O[C@H]9[C@H](O)[C@@H](O)[C@@H](O[C@H]1[C@H](O)[C@H]2O)O[C@@H]9CSCCCCCC(=O)[O-])O[C@@H]8CSCCCCCC(=O)[O-])O[C@@H]7CSCCCCCC(=O)[O-])O[C@@H]6CSCCCCCC(=O)[O-])O[C@@H]5CSCCCCCC(=O)[O-])O[C@@H]4CSCCCCCC(=O)[O-])O[C@@H]3CSCCCCCC(=O)[O-].[Na+].[Na+].[Na+].[Na+].[Na+].[Na+].[Na+].[Na+]` [example 5, 6-Per-deoxy-6-per-(5-carboxypentyl)thio-γ-cyclodextrin, Sodium Salt], the “concentration” value is reported as “(2.5) μmol · kg^−1”, the “% max reversal” value came out at 78% and the “ED50: dose producing 50% reversal” value was determined as 0.74 µmol/kg.
The corresponding values for `O=C([O-])CSC[C@H]1O[C@@H]2O[C@H]3[C@H](O)[C@@H](O)[C@@H](O[C@H]4[C@H](O)[C@@H](O)[C@@H](O[C@H]5[C@H](O)[C@@H](O)[C@@H](O[C@H]6[C@H](O)[C@@H](O)[C@@H](O[C@H]7[C@H](O)[C@@H](O)[C@@H](O[C@H]8[C@H](O)[C@@H](O)[C@@H](O[C@H]9[C@H](O)[C@@H](O)[C@@H](O[C@H]1[C@H](O)[C@H]2O)O[C@@H]9CSCC(=O)[O-])O[C@@H]8CSCC(=O)[O-])O[C@@H]7CSCC(=O)[O-])O[C@@H]6CSCC(=O)[O-])O[C@@H]5CSCC(=O)[O-])O[C@@H]4CSCC(=O)[O-])O[C@@H]3CSCC(=O)[O-].[Na+].[Na+].[Na+].[Na+].[Na+].[Na+].[Na+].[Na+]` [example 7, 6-Per-deoxy-6-per-carboxymethylthio-γ-cyclodextrin, Sodium Salt] are “(1.92) μmol · kg^−1”, 88% and 0.21 µmol/kg.
